Calls of active or inactive are those of the source. The rule behind the calls is not given here.
Tests used:
[1] = target: Maltase-glucoamylase (Homo sapiens) (UniProt O43451); assay: Inhibition of alpha-glucosidase (unknown origin) at 100 uM relative to control
Alpha amylase = target: T1, Alpha amylase (Homo sapiens, UniProt P0DUB6); assay: Inhibition of alpha-amylase (unknown origin)
T1 sequence (P0DUB6 whole entry): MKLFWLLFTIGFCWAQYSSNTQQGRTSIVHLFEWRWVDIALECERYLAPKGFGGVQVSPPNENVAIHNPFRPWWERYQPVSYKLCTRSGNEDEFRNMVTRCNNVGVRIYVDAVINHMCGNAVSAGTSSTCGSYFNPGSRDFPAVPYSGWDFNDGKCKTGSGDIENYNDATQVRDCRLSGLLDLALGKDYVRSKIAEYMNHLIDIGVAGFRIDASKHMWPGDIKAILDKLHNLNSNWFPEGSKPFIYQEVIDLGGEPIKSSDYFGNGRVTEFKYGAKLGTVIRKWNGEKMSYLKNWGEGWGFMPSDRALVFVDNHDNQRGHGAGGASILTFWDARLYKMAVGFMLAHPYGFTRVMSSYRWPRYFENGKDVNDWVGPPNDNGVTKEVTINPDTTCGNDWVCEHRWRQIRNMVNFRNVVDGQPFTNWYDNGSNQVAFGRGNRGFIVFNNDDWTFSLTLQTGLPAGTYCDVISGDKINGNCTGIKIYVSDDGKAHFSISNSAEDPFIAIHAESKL

Homo sapiens = organism: Homo sapiens; assay: Selectivity ratio of IC50 for alpha-amylase (unknown origin) to IC50 for alpha-glucosidase (unknown origin)
HepG2 = assay: Cytotoxicity against human HepG2 cells at 100 uM by MTT assay; format: toxicity, cell-based; details: hepg2, 100 µM
L02 = assay: Cytotoxicity against human L02 cells at 100 uM by MTT assay; format: toxicity, cell-based; details: l02, 100 µM
[2] = target: Maltase-glucoamylase (Homo sapiens) (UniProt O43451); assay: Inhibition of alpha-glucosidase (unknown origin) assessed as increase in intrinsic fluorescence emission; details: dose 0-100 µM
[3] = target: Maltase-glucoamylase (Homo sapiens) (UniProt O43451); assay: Mixed type inhibition of alpha-glucosidase (unknown origin) assessed as decrease in Vmax by measuring increase in slope using pNPG as substrate at upto 25 uM by Lineweaver-Burk plot analysis
[4] = target: Maltase-glucoamylase (Homo sapiens) (UniProt O43451); assay: Mixed type inhibition of alpha-glucosidase (unknown origin) assessed as increase in Km by measuring increase in intercept using pNPG as substrate at upto 25 uM by Lineweaver-Burk plot analysis
Rattus norvegicus [5] = assay: Anti-hyperglycemic activity in sucrose loaded Sprague-Dawley rat assessed as blood glucose level at 5 mg/kg, po measured at 30 mins by oral sucrose tolerance test (reference value: 10.80+/-0.92 mmol/L); format: functional; details: 0.5 h
Rattus norvegicus [6] = assay: Anti-hyperglycemic activity in sucrose loaded Sprague-Dawley rat assessed as decrease in blood glucose level at 5 mg/kg, po measured after 45 mins by oral sucrose tolerance test; format: functional; details: 0.75 h

Chain of Maltase-glucoamylase (Homo sapiens) (O43451 whole entry, looked up): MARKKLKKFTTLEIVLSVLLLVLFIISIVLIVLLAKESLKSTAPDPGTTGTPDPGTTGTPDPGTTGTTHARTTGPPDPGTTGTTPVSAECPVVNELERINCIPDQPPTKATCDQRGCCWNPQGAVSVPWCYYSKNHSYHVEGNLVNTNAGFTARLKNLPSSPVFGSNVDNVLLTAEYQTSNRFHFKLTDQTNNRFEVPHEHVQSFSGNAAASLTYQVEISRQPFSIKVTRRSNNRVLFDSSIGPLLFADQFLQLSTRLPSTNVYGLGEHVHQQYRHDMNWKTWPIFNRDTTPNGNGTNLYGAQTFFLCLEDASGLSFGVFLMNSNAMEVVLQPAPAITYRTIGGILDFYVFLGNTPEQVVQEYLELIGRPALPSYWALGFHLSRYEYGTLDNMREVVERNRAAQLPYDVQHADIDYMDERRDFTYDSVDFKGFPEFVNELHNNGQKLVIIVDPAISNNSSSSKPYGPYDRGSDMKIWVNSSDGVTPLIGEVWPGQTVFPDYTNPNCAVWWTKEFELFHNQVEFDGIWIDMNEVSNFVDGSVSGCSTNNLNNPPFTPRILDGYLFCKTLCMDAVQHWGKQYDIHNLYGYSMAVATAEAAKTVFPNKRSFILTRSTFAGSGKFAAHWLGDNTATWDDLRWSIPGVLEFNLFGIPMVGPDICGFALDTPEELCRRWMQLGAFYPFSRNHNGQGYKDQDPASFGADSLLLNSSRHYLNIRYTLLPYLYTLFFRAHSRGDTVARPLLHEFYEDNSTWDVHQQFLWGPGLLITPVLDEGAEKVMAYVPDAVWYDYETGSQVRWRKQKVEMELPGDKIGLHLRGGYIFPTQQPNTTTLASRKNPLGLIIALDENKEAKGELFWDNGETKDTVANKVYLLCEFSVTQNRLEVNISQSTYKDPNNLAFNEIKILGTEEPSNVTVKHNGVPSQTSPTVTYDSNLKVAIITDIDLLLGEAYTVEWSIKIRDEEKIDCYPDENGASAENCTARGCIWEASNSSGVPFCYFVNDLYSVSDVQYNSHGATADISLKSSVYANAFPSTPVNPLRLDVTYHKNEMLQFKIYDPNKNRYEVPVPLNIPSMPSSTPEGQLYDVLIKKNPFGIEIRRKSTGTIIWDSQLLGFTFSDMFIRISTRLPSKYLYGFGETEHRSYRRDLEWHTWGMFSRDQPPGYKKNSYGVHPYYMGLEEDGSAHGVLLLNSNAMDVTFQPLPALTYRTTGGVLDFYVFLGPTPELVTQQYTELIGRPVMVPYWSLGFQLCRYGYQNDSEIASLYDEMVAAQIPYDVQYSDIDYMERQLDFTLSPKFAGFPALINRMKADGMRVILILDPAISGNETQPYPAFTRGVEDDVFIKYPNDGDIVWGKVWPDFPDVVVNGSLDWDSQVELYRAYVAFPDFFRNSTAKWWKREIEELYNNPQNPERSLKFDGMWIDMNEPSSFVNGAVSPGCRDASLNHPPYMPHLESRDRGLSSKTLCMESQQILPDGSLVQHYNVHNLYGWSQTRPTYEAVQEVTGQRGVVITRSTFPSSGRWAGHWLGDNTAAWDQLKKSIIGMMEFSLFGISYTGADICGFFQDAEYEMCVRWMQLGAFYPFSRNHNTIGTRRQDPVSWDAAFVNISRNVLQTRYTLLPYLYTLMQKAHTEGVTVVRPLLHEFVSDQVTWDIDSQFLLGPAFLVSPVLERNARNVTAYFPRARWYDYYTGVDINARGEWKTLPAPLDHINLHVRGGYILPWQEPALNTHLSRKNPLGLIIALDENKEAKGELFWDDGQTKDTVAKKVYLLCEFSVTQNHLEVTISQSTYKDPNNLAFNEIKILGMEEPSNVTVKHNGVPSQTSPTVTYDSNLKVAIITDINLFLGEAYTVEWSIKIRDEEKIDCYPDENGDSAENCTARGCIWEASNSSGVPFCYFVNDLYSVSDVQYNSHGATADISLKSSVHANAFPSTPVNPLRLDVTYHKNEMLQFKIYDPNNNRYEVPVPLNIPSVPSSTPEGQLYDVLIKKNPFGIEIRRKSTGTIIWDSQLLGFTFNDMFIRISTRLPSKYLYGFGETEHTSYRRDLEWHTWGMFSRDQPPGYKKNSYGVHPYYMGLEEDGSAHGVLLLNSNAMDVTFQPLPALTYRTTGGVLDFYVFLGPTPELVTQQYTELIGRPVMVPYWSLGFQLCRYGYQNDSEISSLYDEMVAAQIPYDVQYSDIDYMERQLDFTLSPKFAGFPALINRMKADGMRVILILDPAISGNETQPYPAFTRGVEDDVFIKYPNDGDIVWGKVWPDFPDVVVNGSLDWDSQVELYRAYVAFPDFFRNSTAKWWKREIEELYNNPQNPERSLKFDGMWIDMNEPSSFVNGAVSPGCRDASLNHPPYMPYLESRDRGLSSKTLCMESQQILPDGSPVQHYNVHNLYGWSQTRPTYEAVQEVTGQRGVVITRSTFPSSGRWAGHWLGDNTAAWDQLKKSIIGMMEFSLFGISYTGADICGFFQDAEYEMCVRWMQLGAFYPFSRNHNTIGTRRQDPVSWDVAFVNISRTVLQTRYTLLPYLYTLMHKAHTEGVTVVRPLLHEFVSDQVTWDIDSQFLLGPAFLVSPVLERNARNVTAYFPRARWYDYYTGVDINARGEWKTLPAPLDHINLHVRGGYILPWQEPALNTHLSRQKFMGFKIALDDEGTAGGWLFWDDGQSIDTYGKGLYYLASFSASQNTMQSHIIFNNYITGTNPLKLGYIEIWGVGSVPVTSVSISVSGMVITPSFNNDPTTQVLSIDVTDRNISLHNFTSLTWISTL

Structure (SMILES)	inhibition [1]	Activity (HepG2)	Activity (L02)	other results
O=C(Nc1sc2c(c1C(=O)NCc1ccncc1)CCCCC2)c1cccnc1	9.2%			
O=C(Nc1sc2c(c1C(=O)NCc1ccccn1)CCCC2)c1cccnc1	57.2%	Non-Toxic	Non-Toxic	IC50 (Alpha amylase): 94.8 µM; Ratio IC50 (Homo sapiens): 1.5
O=C(Nc1sc2c(c1C(=O)NCc1ccccn1)CCC2)c1cccnc1	30.5%	Non-Toxic	Non-Toxic	
COC(=O)c1ccc(CNC(=O)c2c(NC(=O)c3cccnc3)sc3c2CCCCC3)cc1	18.1%			
O=C(Nc1sc2c(c1C(=O)NCc1ccccc1)CCCC2)c1cccnc1	64.4%	Non-Toxic	Non-Toxic	IC50 (Alpha amylase): 76.1 µM; Ratio IC50 (Homo sapiens): 1.7
COc1ccc(CNC(=O)c2c(NC(=O)c3cccnc3)sc3c2CCCCC3)cc1	44.1%			
COc1ccc(CNC(=O)c2c(NC(=O)c3cccnc3)sc3c2CCC3)cc1	55.4%	Non-Toxic	Non-Toxic	
COc1cc2c(cc1OC)CN(C(=O)c1c(NC(=O)c3cccnc3)sc3c1CCCCC3)CC2	29.1%			
COc1cc2c(cc1OC)CN(C(=O)c1c(NC(=O)c3cccnc3)sc3c1CCCC3)CC2	42.2%			
O=C(Nc1sc2c(c1C(=O)NCc1cccnc1)CCCCC2)c1cccnc1	26.5%			
COC(=O)c1ccc(CNC(=O)c2c(NC(=O)c3cccnc3)sc3c2CCCC3)cc1	58.2%	Non-Toxic	Non-Toxic	IC50 (Alpha amylase): 66.9 µM; Ratio IC50 (Homo sapiens): 0.8
COc1ccc(CNC(=O)c2c(NC(=O)c3cccnc3)sc3c2CCCC3)cc1	78.1%	Non-Toxic	Non-Toxic	IC50 (Alpha amylase): 80.4 µM; Ratio IC50 (Homo sapiens): 2.7
C[C@H]1O[C@H](O[C@H]2[C@H](O)[C@@H](O)[C@@H](O[C@H]3[C@H](O)[C@@H](O)C(O)O[C@@H]3CO)O[C@@H]2CO)[C@H](O)[C@@H](O)[C@@H]1N[C@H]1C=C(CO)[C@@H](O)[C@H](O)[C@H]1O (stereo partly drawn) [ACARBOSE]		Non-Toxic	Non-Toxic	Activity (Rattus norvegicus [5]): 9.57 mmol/L; Activity (Rattus norvegicus [6]): 9.89 mmol/L

Now from value to molecule, other results behind:

inhibition [1]	Structure (SMILES)	Activity (HepG2)	Activity (L02)	other results
59%	O=C(Nc1sc2c(c1C(=O)NCc1ccccc1)CCCCC2)c1cccnc1			
81.7%	COc1cc(CNC(=O)c2c(NC(=O)c3cccnc3)sc3c2CCCCC3)ccc1O			
93.6%	COc1cc(CNC(=O)c2c(NC(=O)c3cccnc3)sc3c2CCCC3)ccc1O	Non-Toxic	Non-Toxic	IC50 (Alpha amylase): 72.9 µM; Ratio IC50 (Homo sapiens): 7.4; Activity [2]: Dose-Dependent Effect; Activity [3]: Active; Activity [4]: Active; Activity (Rattus norvegicus [5]): 9.73 mmol/L; Activity (Rattus norvegicus [6]): 9.9 mmol/L
50.6%	COc1cc(CNC(=O)c2c(NC(=O)c3cccnc3)sc3c2CCC3)ccc1O	Non-Toxic	Non-Toxic	
62.7%	O=C(Nc1sc2c(c1C(=O)NCc1cccnc1)CCCC2)c1cccnc1	Non-Toxic	Non-Toxic	IC50 (Alpha amylase): 48.1 µM; Ratio IC50 (Homo sapiens): 0.9
44.1%	O=C(Nc1sc2c(c1C(=O)NCc1ccncc1)CCCC2)c1cccnc1			
1.1%	O=C(Nc1sc2c(c1C(=O)NCc1ccncc1)CCC2)c1cccnc1	Non-Toxic	Non-Toxic	
21.9%	COC(=O)c1ccc(CNC(=O)c2c(NC(=O)c3cccnc3)sc3c2CCC3)cc1	Non-Toxic	Non-Toxic	
23.2%	COc1cc2c(cc1OC)CN(C(=O)c1c(NC(=O)c3cccnc3)sc3c1CCC3)CC2	Non-Toxic	Non-Toxic	
12.5%	O=C(Nc1sc2c(c1C(=O)NCc1cccnc1)CCC2)c1cccnc1	Non-Toxic	Non-Toxic	
56.6%	O=C(Nc1sc2c(c1C(=O)NCc1ccccc1)CCC2)c1cccnc1	Non-Toxic	Non-Toxic	
26.8%	O=C(Nc1sc2c(c1C(=O)NCc1ccccn1)CCCCC2)c1cccnc1			

— ChEMBL document CHEMBL5223141, “New cycloalkyl[b]thiophenylnicotinamide-based α-glucosidase inhibitors as promising anti-diabetic agents: Synthesis, in silico study, in vitro and in vivo evaluations” (Bioorg Med Chem Lett, 2023)
